Results on 1 compound are retold here after paper PMC7022573, “Development of Level A In Vitro–Vivo Correlation for Electrosprayed Microspheres Containing Leuprolide: Physicochemical, Pharmacokinetic, and Pharmacodynamic Evaluation” (Pharmaceutics, 2020).

The nature of data set [1]: Solvent selection for the drug phase: dissolution of leuprolide. In kind it is physicochemical. The text has this: Solubility, viscosity, spray pattern, and density of polymer solution were investigated using four solvents (methylene chloride, acetonitrile, ethyl acetate, and acetone), and the optimal solvent was selected from among these. Parameters including dissolution of the leuprolide, miscibility with the solvent of polymer phase, drying degree of dry matter, and density of drug solution were investigated using three solvents (water, ethanol, and methanol), and the optimal solvent was selected.

For data set [2] the following is noted: rat, in vivo, sc; cited from earlier work.
Experimental: The IVIVC model development in this study was carried out using Berkeley Madonna (program version 8.3.14). Differences in PK profiles by formulations were evaluated by adding a release compartment to reflect the release characteristic.

Take `CCNC(=O)[C@@H]1CCCN1C(=O)[C@H](CCCNC(=N)N)NC(=O)[C@H](CC(C)C)NC(=O)[C@@H](CC(C)C)NC(=O)[C@H](Cc1ccc(O)cc1)NC(=O)[C@H](CO)NC(=O)[C@H](Cc1c[nH]c2ccccc12)NC(=O)[C@H](Cc1c[nH]cn1)NC(=O)[C@@H]1CCC(=O)N1` [leuprolide]: the “Dissolution of Leuprolide” value in data set [1] (solvent ethanol) was “dissolves leuprolide slowly, and the drug easily precipitated”. The “Dissolution of Leuprolide” value in data set [1] (solvent methanol) is reported as “high solubility”. For the same compound, the “Dissolution of Leuprolide” value in data set [1] (solvent water) is on record as “high solubility”. In data set [2], the “CL (clearance)” value is 514.46 mL/h, the “Vd (volume of distribution)” value is given as 487.40 mL and the “ka (absorption rate constant)” value was 16.67 h⁻¹.
